pIC50: −log10 of the molar value. Where a name gives a salt, the structure may show the parent alone. Read-outs that look alike come from different tables or passages of the source.
Key:
Assay in all cases: biochemical
[1] = biological target: T1, MMP-1 (Homo sapiens, UniProt P03956); conditions: read-out: MMP-1 IC50
T1 construct: made in house; host or cells: transfected HT-1080 cells (provided by Dr. Harold Welgus, Washington University)
T1 sequence (P03956 100-469): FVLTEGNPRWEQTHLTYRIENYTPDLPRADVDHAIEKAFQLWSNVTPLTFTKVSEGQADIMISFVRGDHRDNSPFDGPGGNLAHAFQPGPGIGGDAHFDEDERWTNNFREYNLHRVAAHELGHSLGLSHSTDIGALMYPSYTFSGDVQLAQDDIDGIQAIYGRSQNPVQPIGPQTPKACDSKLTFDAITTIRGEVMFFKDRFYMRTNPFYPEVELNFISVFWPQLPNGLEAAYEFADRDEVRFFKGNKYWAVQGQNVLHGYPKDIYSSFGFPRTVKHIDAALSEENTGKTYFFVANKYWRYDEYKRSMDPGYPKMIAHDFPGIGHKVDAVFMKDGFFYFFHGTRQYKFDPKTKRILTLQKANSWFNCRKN
Experimental: (§1) The compounds prepared in the manner described in the Examples above were assayed for activity by an in vitro assay. […] Briefly, 4-aminophenylmercuric acetate (APMA) or trypsin-activated MMPs were incubated with various concentrations of the inhibitor compound at room temperature for 5 minutes.
(§2) The expressed enzyme was purified first over a heparin agarose column and then over a chelating zinc chloride column. The proenzyme was activated by APMA for use in the assay.
(§3) MMP-1 expressed in transfected HT-1080 cells was provided by Dr. Harold Welgus of Washington University, St. Louis, Mo. The enzyme was also activated using APMA and was then purified over a hydroxamic acid column. Dr. Welgus also provided transfected HT-1080 cells that expressed MMP-9. Transfected cells that expressed MMP-2 were provided by Dr. Gregory Goldberg, also of Washington University. Studies with MMP-7 were carried out at pH 7.5 in the presence of 0.02% 2-mercaptoethanol using conditions otherwise similar to those used for the other enzymes. The enzyme was obtaind from a hMMP-7-expressing E. coli clone that was a gift of Dr. Steven Shapiro of Washington University, St. Louis, Mo. Further specifics for preparation and use of these enzymes can be found in the scientific literature describing these enzymes. See, for example, Enzyme Nomenclature, Academic Press, San Diego, Calif. […] The enzyme substrate is a methoxycoumarin-containing polypeptide having the following sequence:
(§4) MCA-ProLeuGlyLeuDpaAlaArgNH2, wherein MCA is methoxycoumarin and Dpa is 3-(2,4-dinitrophenyl)-L-2,3-diaminopropionyl alanine.
(§5) The buffer used for assays contained 100 mM Tris-HCl, 100 mM NaCl, 10 mM CaCl2 and 0.05 percent polyethyleneglycol (23) lauryl ether at a pH value of 7.5. Assays were carried out at room temperature, and dimethyl sulfoxide (DMSO) at a final concentration of 1 percent was used to dissolve inhibitor compound.
(§6) The assayed inhibitor compound in DMSO/buffer solution was compared to an equal amount of DMSO/buffer with no inhibitor as control using Microfluor White Plates (Dynatech). The inhibitor or control solution was maintained in the plate for 10 minutes and the substrate was added to provide a final concentration of 4 μM.
(§7) Inhibition was measured as a reduction in fluorescent intensity as a function of inhibitor concentration, using a Perkin Elmer L550 plate reader. The IC50 values were calculated from those values. The results are set forth in the Inhibition Table A, below, reported in terms of IC50 to three significant figures, where appropriate.

[2] = biological target: T2, MMP-2 (Homo sapiens, UniProt P08253); conditions: for pIC50: read-out: MMP-2 IC50; for IC50: MMP-2 IC50 (nM)
T2 construct: made in house; provided by Dr. Gregory Goldberg, Washington University
T2 sequence (P08253 110-660): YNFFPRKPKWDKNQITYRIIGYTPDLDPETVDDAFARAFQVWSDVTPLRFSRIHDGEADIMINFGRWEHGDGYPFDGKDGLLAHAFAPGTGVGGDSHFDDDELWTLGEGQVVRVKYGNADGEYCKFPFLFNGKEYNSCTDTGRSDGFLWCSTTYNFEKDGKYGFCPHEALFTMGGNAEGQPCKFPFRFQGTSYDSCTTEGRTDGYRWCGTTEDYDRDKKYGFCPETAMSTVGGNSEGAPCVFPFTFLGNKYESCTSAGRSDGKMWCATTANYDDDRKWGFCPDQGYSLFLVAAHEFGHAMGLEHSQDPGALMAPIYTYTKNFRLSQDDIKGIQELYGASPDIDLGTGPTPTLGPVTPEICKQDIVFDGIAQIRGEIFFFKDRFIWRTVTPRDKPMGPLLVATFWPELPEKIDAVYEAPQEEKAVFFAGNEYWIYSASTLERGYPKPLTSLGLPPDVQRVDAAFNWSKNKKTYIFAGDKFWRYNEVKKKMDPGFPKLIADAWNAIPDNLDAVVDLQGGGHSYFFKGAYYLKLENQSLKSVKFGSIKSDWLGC
Experimental: as §1, §2, §3, §4, §5, §6, §7

[3] = biological target: T3, MMP-13 (Homo sapiens, UniProt P45452); conditions: read-out: MMP-13 IC50
T3 construct: made in house; host or cells: baculovirus / insect cells
Experimental: as §1, §2, §3, §4, §5, §6, §7

[4] = recombinant human MMP-1, MCA peptide substrate 4 μM, pH 7.5, room temperature
[5] = recombinant human MMP-2, MCA peptide substrate 4 μM, pH 7.5, room temperature
[6] = recombinant human MMP-13, MCA peptide substrate 4 μM, pH 7.5, room temperature

SMILES | pIC50 [1, 4] | pIC50 [2, 5] | pIC50 [3, 6] | also measured
O=C(NO)C1(S(=O)(=O)c2ccc(N3CCC(SCc4ccc(OC(F)(F)F)cc4)CC3)cc2)CCNCC1 [Example 460] | < 5.00 |  |  | 
COCCN1CCC(C(=O)NO)(S(=O)(=O)c2ccc(N3CCC(C(=O)N(C)c4ccccc4)CC3)cc2)CC1 [Example 244, 1-[4-[[4-[(Hydroxyamino)carbonyl]-1-(2-methoxyethyl)-4-piperidinyl]-sulfonyl]phenyl]-N-methyl-N-phenyl-4-piperidinecarboxamide, Monohydrate] | < 5.00 | 5.36 | 7.17 | 
CN(C)c1ccc(C(=O)C2CCN(c3ccc(S(=O)(=O)C4(C(=O)NO)CCOCC4)cc3)CC2)cc1 [Example 802] | < 5.00 |  | 8.64 | 
O=C(NO)C1(S(=O)(=O)c2ccc(N3CCC(OCc4ccccc4F)CC3)cc2)CCOCC1 [Example 576] | < 5.00 | 7.11 | 8.06 | 
C[C@@H]1CN(C(=O)C2CCN(c3ccc(S(=O)(=O)C4(C(=O)NO)CCOCC4)cc3)CC2)C[C@H](C)N1 [Example 46] |  |  |  | IC50 [2]: 5700 nM; pIC50 [1]: < 5.00
CC1CC(C)CN(C(=O)C2CCN(c3ccc(S(=O)(=O)C4(C(=O)NO)CCN(C(=O)CN5CCC(C(N)=O)CC5)CC4)cc3)CC2)C1 (centres unmarked) [Example 300] | < 5.00 | < 5.00 | 7.43 | 
O=C(c1ccc(F)cc1)C1CCN(c2ccc(S(=O)(=O)C3(C(=O)NO)CCOCC3)cc2)CC1 [Example 654] | < 5.00 | 7.46 | 8.49 | 
COc1ccc(C(=O)C2CCN(c3ccc(S(=O)(=O)C4(C(=O)NO)CCN(C5CC5)CC4)cc3)CC2)cc1 [Example 441] | < 5.00 | 6.38 | 8.22 | 
O=C(NO)C1(S(=O)(=O)c2ccc(N3CCN(c4ccccc4F)CC3)cc2)CCOCC1 [Example 83] | 5.51 |  | 8.57 | IC50 [2]: 21.1 nM
COCCNCCCCC(=O)N1CCC(C(=O)NO)(S(=O)(=O)c2ccc(Oc3ccc(C(F)(F)F)cc3)cc2)CC1 [Example 347] | < 5.00 | 9.15 | 8.52 | 
O=C(Nc1cccnc1)OC1CCN(c2ccc(S(=O)(=O)C3(C(=O)NO)CCOCC3)cc2)CC1 [Example 465] | < 5.00 | 6.43 | 7.10 | 
O=C(NO)C1(S(=O)(=O)c2ccc(Oc3ccc(OC(F)(F)F)cc3)cc2)CCN(C(=S)Nc2cccnc2)CC1 [Example 201] | < 5.00 | 9.70 | 9.52 | 
CONCC(=O)N1CCC(C(=O)NO)(S(=O)(=O)c2ccc(N3CCC(C(=O)N4CC(C)CC(C)C4)CC3)cc2)CC1 (centres unmarked) [Example 312] | < 5.00 | < 5.00 | 6.70 | 
O=C(NO)C1(S(=O)(=O)c2ccc(N3CCCN(S(=O)(=O)c4ccc(C(F)(F)F)cc4)CC3)cc2)CCOCC1 [Example 697] | < 5.00 | 5.82 | 7.74 | 
Cc1cccc(N2CCN(c3ccc(S(=O)(=O)C4(C(=O)NO)CCOCC4)cc3)CC2)c1C [Example 490] | < 5.00 | 5.52 | 7.21 | 
CCc1cccc([C@@H](C)C2CCN(c3ccc(S(=O)(=O)C4(C(=O)NO)CCOCC4)cc3)CC2)c1 [Example 831] | < 5.00 | 6.77 | 8.64 | 

SMILES | pIC50 [1, 4] | pIC50 [2, 5] | pIC50 [3, 6] | also measured
O=C(NO)C1(S(=O)(=O)c2ccc(N3CCC(Oc4ccc(Cl)c(Cl)c4)CC3)cc2)CCOCC1 [Example 617] | < 5.00 | 8.24 | 8.15 | 
CC1CC(C)CN(C(=O)C2CCN(c3ccc(S(=O)(=O)C4(C(=O)NO)CCN(C(=O)CN5CCCCC5)CC4)cc3)CC2)C1 (centres unmarked) [Example 296] | < 5.00 | < 5.00 | 7.30 | 
CC(=O)Nc1ccc(Oc2ccc(S(=O)(=O)C3(C(=O)NO)CCN(C4CC4)CC3)cc2)cc1 [Example 378] | 6.70 | 9.52 | 8.77 | 
O=C(NO)C1(S(=O)(=O)c2ccc(N3CCC(SCc4ccc(OC(F)(F)F)cc4)CC3)cc2)CCN(C2CC2)CC1 [Example 454] | < 5.00 |  |  | 
CC1CC(C)CN(C(=O)C2CCN(c3ccc(S(=O)(=O)C4(C(=O)NO)CCN(C(=O)CN5CCN(CCN(C)C)CC5)CC4)cc3)CC2)C1 (centres unmarked) [Example 308] | < 5.00 |  | 7.40 | 
COc1ccc(C(=O)C2CCN(c3ccc(S(=O)(=O)C4(C(=O)NO)CCNCC4)cc3)CC2)cc1 [Example 437] | < 5.00 |  |  | 
O=C(NO)C1(S(=O)(=O)c2ccc(N3CCC(SCc4ccccc4Cl)CC3)cc2)CCN(C2CC2)CC1 [Example 461] | < 5.00 |  |  | 
CC1CC(C)CN(C(=O)C2CCN(c3ccc(S(=O)(=O)C4(C(=O)NO)CCN(C(=O)CNCC(F)(F)F)CC4)cc3)CC2)C1 (centres unmarked) [Example 310] | < 5.00 |  | 7.22 | 
C[C@@H]1C[C@H](C)CN(C(=O)C2CCN(c3ccc(S(=O)(=O)C4(C(=O)NO)CCNCC4)cc3)CC2)C1 [Example 240, rel-4-[[4-[4-[[(3R,5S)-3,5-Dimethyl-1-piperidinyl]carbonyl]-1-piperidinyl]phenyl]sulfonyl]-N-hydroxy-4-piperidinecarboxamide, Monohydrochloride] | < 5.00 |  | 7.11 | 
C[C@H]1C[C@H](C)CN(C(=O)C2CCN(c3ccc(S(=O)(=O)C4(C(=O)NO)CCNCC4)cc3)CC2)C1 (relative stereo) [Example 238, rel-4-[[4-[4-[[(3R,5R)-3,5-Dimethyl-1-piperidinyl]carbonyl]-1-piperidinyl]phenyl]sulfonyl]-N-hydroxy-4-piperidinecarboxamide, Monohydrochloride] |  |  |  | pIC50 [3]: 7.10; pIC50 [1]: < 5.00
COc1ccc(C(=O)C2CCN(c3ccc(S(=O)(=O)C4(C(=O)NO)CCN(C(=O)c5ccco5)CC4)cc3)CC2)cc1 [Example 436] | < 5.00 |  |  | 
O=C(C1CCN(c2ccc(S(=O)(=O)C3(C(=O)NO)CCOCC3)cc2)CC1)N1CCN(c2ccccn2)CC1 [Example 26] |  |  |  | pIC50 [2]: 5.44; pIC50 [1]: < 5.00
O=C(NO)C1(S(=O)(=O)c2ccc(N3CCC(SCc4ccccc4)CC3)cc2)CCN(C2CC2)CC1 [Example 417] | < 5.00 |  | 9.15 | 
O=C(NO)C1(S(=O)(=O)c2ccc(N3CCC(SCc4cccc(C(F)(F)F)c4)CC3)cc2)CCN(C2CC2)CC1 [Example 463] | < 5.00 |  |  | 
Cn1ccc2cc(C(=O)C3CCN(c4ccc(S(=O)(=O)C5(C(=O)NO)CCOCC5)cc4)CC3)ccc21 [Example 867] | < 5.00 |  | 7.78 | 
CN(C)CCN1CCN(C(=O)C2CCN(c3ccc(S(=O)(=O)C4(C(=O)NO)CCOCC4)cc3)CC2)CC1 [Example 23] |  |  |  | pIC50 [3]: 7.05; pIC50 [1]: < 5.00

Source: US6750228B1, “Aromatic sulfone hydroxamic acid metalloprotease inhibitor” (priority 1997, dated 2004)
